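Results reflect a 48-hour exposure of cells in 96-well plates to compound at five concentrations. The concentration for 50% growth inhibition is given as GI50. TGI marks complete inhibition of growth.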
What was measured:
Test in all cases: NCI tumour cell line growth inhibition, 48 h
HOP-62 NSCLC = system: HOP-62 NSCLC
CCRF-CEM leukemia = system: CCRF-CEM leukemia
786-0 renal = system: 786-0 renal
NCI-H23 lung = system: NCI-H23 lung
SW-620 colon = system: SW-620 colon
LXFL 529 NSCLC = system: LXFL 529 NSCLC
HCT-116 colon = system: HCT-116 colon
A549 NSCLC = system: A549 NSCLC
IGROV1 ovarian = system: IGROV1 ovarian
SNB-78 CNS = system: SNB-78 CNS
M19-MEL melanoma = system: M19-MEL melanoma
MDA-MB-231 breast = system: MDA-MB-231 breast

SMILES | TGI (HOP-62 NSCLC) | TGI (CCRF-CEM leukemia) | TGI (786-0 renal) | TGI (NCI-H23 lung) | TGI (SW-620 colon) | TGI (LXFL 529 NSCLC) | TGI (HCT-116 colon) | TGI (A549 NSCLC) | TGI (IGROV1 ovarian) | TGI (SNB-78 CNS) | TGI (M19-MEL melanoma) | GI50 (MDA-MB-231 breast) | TGI (MDA-MB-231 breast)
COc1cc(CC(C)N)ccc1O (centres undefined) | > 100 µM | > 31.6 µM | > 100 µM | > 100 µM | > 100 µM | > 100 µM | > 100 µM | > 100 µM | > 100 µM | > 100 µM |  |  | 
O=C1c2cccc(NCCNCCO)c2C(=O)c2cccc(NCCNCCO)c21 | 4.14 µM | 2.88 µM | 3.95 µM | 5.68 µM | 11 µM | 2.95 µM | 4.77 µM | 7.78 µM | 6.39 µM | 6.91 µM |  |  | 
C[C@]12CC[C@H](O)C=C1CC[C@@H]1[C@@H]2CC[C@]2(C)C(c3ccc(=O)oc3)CC[C@]12O (some centres undefined) | 0.0269 µM | 0.151 µM |  | 0.023 µM | 0.362 µM |  | 0.0674 µM | 0.0172 µM | 0.164 µM | 0.503 µM | 0.071 µM |  | 
O=[N+]([O-])c1ccc(C2=Nc3ccccc3SC(c3ccccc3)C2)cc1 (centres undefined) | 58.5 µM | 37.2 µM |  |  | 27.8 µM | 34.8 µM | 24.2 µM | 51.2 µM | 33.3 µM | 70.9 µM | 31 µM |  | 
Cc1c2ccncc2c(C)c2c1[nH]c1ccccc12 | 3.13 µM | 4.44 µM |  | 2.58 µM | 2.07 µM |  | 1.68 µM | 2.96 µM | 3.76 µM | 7.88 µM | 2.16 µM | 1.45 µM | 6.03 µM
COc1c(O)c(O)cc2c1-c1ccc(OC)c(=O)cc1C(NC(C)=O)CC2 (centres undefined) | 87.1 µM | 40.2 µM | 74.8 µM | 34.2 µM | 63.3 µM | 25.2 µM | 25.6 µM | > 100 µM | > 100 µM | > 100 µM | 23.7 µM |  | > 59.4 µM
COc1cc2c(c(O)c1O)-c1ccc(OC)c(=O)cc1C(NC(C)=O)CC2 (centres undefined) | > 100 µM | 37.1 µM | > 82.8 µM | 54.7 µM | 51.6 µM | 44.3 µM | > 62.8 µM | > 100 µM | > 100 µM | > 100 µM | 26.1 µM |  | 
NC(=O)c1ncn2c1NC(=O)CC2 | > 100 µM | > 100 µM |  | > 100 µM | > 100 µM |  | > 100 µM | > 100 µM | > 100 µM | > 86.8 µM | > 100 µM |  | 
O=C(OCc1ccccc1)C(Cc1ccccc1)N(Cc1ccccc1)Cc1ccccc1 (centres undefined) | > 100 µM | > 100 µM |  | > 100 µM | > 100 µM | > 100 µM | > 100 µM | > 100 µM | > 100 µM | > 100 µM | > 100 µM |  | 
N#CCCN(CCC#N)c1ccc(/C=C2\SC(=S)NC2=O)cc1Br | 40.4 µM | > 100 µM | > 100 µM | > 100 µM | > 100 µM |  | > 100 µM | > 100 µM | > 100 µM |  |  |  | 79.6 µM
c1ccc(-c2cnc(-c3ccc(-c4ncc(-c5ccccc5)o4)cc3)o2)cc1 | > 100 µM | > 100 µM | > 100 µM | > 100 µM | > 100 µM |  | > 100 µM | > 100 µM | > 100 µM |  |  |  | > 100 µM
CCc1nc2cc3cccnc3c(Cl)c2[nH]c1=O | > 100 µM | > 100 µM | > 100 µM | > 100 µM | > 100 µM |  | > 100 µM | > 100 µM | > 100 µM |  |  |  | > 100 µM
CC1C(c2ccc3c(c2)OCO3)c2cc3c(cc2OC1N1CCOCC1)OCO3 (centres undefined) | 78.6 µM | 73.3 µM | > 100 µM | > 100 µM | > 100 µM |  | 47.3 µM | > 100 µM | > 100 µM |  |  |  | > 100 µM
COC(=O)C1=C(C)NC(C)=C([N+](=O)[O-])C1c1cccc(N=O)c1 (centres undefined) | 34.5 µM | > 100 µM | 27.2 µM | 33.5 µM | 13.3 µM |  | 23 µM | 40.1 µM | 29.5 µM |  |  |  | 32.6 µM
COc1cc2c(cc1OC)C13CC[N+]4(C)CC5=CCOC6CC(=O)N2C1C6C5CC34[O-] (centres undefined) | > 100 µM | > 100 µM | > 100 µM | > 100 µM | > 100 µM |  | > 100 µM | > 100 µM | > 100 µM |  |  |  | > 100 µM
CCOC(=O)C1(C(=O)OCC)CCCN1C(=O)[C@H](CNC(=O)OC(C)(C)C)NC(=O)OCc1ccccc1 | > 100 µM | > 100 µM | > 100 µM | > 100 µM | > 100 µM |  | > 100 µM | > 100 µM | > 100 µM |  |  |  | > 100 µM
CCCCC#CS(=O)(=O)C(F)(F)F | > 100 µM | > 100 µM |  | > 100 µM | > 100 µM |  | > 100 µM | > 100 µM | > 100 µM | > 100 µM |  |  | 
COc1cc(CNc2nc3cc(C(F)(F)F)ccc3nc2-c2ccccc2)cc(OC)c1OC | > 100 µM | > 100 µM | > 100 µM | > 100 µM | > 100 µM |  | > 100 µM | > 100 µM | > 100 µM |  |  |  | 67.5 µM

SMILES | TGI (HOP-62 NSCLC) | TGI (CCRF-CEM leukemia) | TGI (786-0 renal) | TGI (NCI-H23 lung) | TGI (SW-620 colon) | TGI (LXFL 529 NSCLC) | TGI (HCT-116 colon) | TGI (A549 NSCLC) | TGI (IGROV1 ovarian) | TGI (SNB-78 CNS) | TGI (M19-MEL melanoma) | GI50 (MDA-MB-231 breast) | TGI (MDA-MB-231 breast)
COc1ccc2c(c1)CCN=C2c1ccccc1CCCCl | > 100 µM | > 100 µM | > 100 µM | 39.8 µM | > 100 µM |  | 61.3 µM | > 100 µM | > 100 µM |  |  |  | 63.7 µM
Cc1cn2c(C)csc2c1P(=O)(OC(C)C)OC(C)C | > 100 µM | > 100 µM | > 100 µM | > 100 µM | > 100 µM |  | > 100 µM | > 100 µM | > 100 µM |  |  |  | > 100 µM
CC12CC1C(c1cccc([N+](=O)[O-])c1)(c1cccc([N+](=O)[O-])c1)N=N2 (centres undefined) | > 100 µM | 43.9 µM | 52.7 µM | 51.5 µM | > 100 µM |  | 33.8 µM | > 100 µM | 60.5 µM |  |  |  | 39.1 µM
OC1(c2ccc(Cl)cc2)c2ccc(CN3CCCC3)cc2C2=NCCN21 (centres undefined) | 29.2 µM | 30.7 µM | 28.6 µM | 31.2 µM | 26.5 µM |  | 27.1 µM | 33.3 µM | 28.7 µM |  |  |  | 27.3 µM
C=C1C(=O)OC2/C=C(/C)C3(O)OC(C)(CC(OC(=O)C(C)C)C12)CC3OC(C)=O (centres undefined) | > 100 µM | > 25.5 µM | > 100 µM | 18.6 µM | > 45.1 µM |  | > 100 µM | > 100 µM | 36.6 µM |  |  |  | > 42.6 µM
O=C(O)c1ccc2c(c1)CC1(C2)Cc2cc3c(cc2C1=O)CCC3 (centres undefined) | > 100 µM | > 100 µM | > 100 µM | > 100 µM | > 100 µM |  | > 100 µM | > 100 µM | > 100 µM |  |  |  | > 100 µM
COC(=O)C1(Cc2ccc3c(c2)CCC3)Cc2ccccc2C1=O (centres undefined) | 59.3 µM | 67.2 µM | > 100 µM | 95.4 µM | > 100 µM |  | 46.6 µM | > 100 µM | > 100 µM |  |  |  | > 100 µM
Nc1nc(Nc2ccccc2)sc1C(=O)c1c[nH]c2ccccc12 | 30.9 µM | 14.5 µM | 18.2 µM | 49.2 µM | 31.2 µM |  | 19.5 µM | 23.7 µM | 31.2 µM |  |  |  | 32.3 µM
CCOC(=O)C(C)c1nc2c(Cl)c3ncccc3cc2[nH]c1=O (centres undefined) | > 100 µM | 68.4 µM | > 100 µM | > 100 µM | > 100 µM |  | > 100 µM | > 100 µM | > 100 µM |  |  |  | > 100 µM
COC(=O)C1(Cc2ccc3c(c2)CCC3)Cc2cc3c(cc2C1)CCC3 | > 100 µM | 47.8 µM | > 100 µM | > 100 µM | > 100 µM |  | > 100 µM | > 100 µM | > 100 µM |  |  |  | > 100 µM
COc1ccc(N=C2C(=S)N(c3ccc(OC)cc3)/C(=N/S(=O)(=O)c3ccccc3)N2c2ccccc2)cc1 | > 57 µM | > 100 µM | 19.7 µM | 29 µM | 16.3 µM |  | 17.7 µM | > 73.1 µM | 28.1 µM |  |  |  | 10.6 µM
Cn1ccnc1Sc1ccc(C=Nc2ccc3nc(SCC(=O)NC4CCCCC4)sc3c2)cc1[N+](=O)[O-] | > 100 µM | > 100 µM | 49 µM | > 100 µM | > 100 µM |  | > 100 µM | > 100 µM | > 100 µM |  |  |  | 99.4 µM
O=C(CCc1cccc(O)c1)NCCCNC(=O)CCc1cccc(O)c1 | > 100 µM | > 100 µM | > 100 µM | > 100 µM | > 100 µM |  | > 100 µM | > 100 µM | > 100 µM |  |  |  | > 100 µM
CCCOC(=O)NC(C)C(=O)NC(CCC(=O)NC(CCCC(N)C(=O)O)C(=O)NC(C)C(=O)O)C(=O)O (centres undefined) | > 100 µM | 36.9 µM | > 100 µM | > 100 µM | 62.3 µM |  | > 100 µM | > 100 µM | > 100 µM |  |  |  | 50.8 µM
N#CC(=N)c1ncn(-c2ccccc2N)c1N | > 100 µM | > 100 µM | > 100 µM | > 100 µM | > 100 µM |  | > 100 µM | > 100 µM | > 100 µM |  |  |  | > 100 µM
COc1cc(C=C2C(=O)NC(=S)NC2=O)cc(OC)c1OC | > 100 µM | > 100 µM | > 100 µM | > 100 µM | > 100 µM |  | > 100 µM | > 100 µM | > 100 µM |  |  |  | > 100 µM
Clc1ccc(Cl)c(SCCCN2CCNCC2)c1 | 41.7 µM | 50.5 µM | 52.1 µM | 39.8 µM | 56.7 µM |  | 41.5 µM | 44.4 µM | 42.2 µM |  |  |  | 31.7 µM

Reference: PubChem BioAssay (NCI)
